Patent US4218448A, “Antihypertensive polyfluorohydroxyisopropyl bicyclic and tricyclic carbostyrils” (E. I. Du Pont de Nemours and Company, priority 1977, dated 1980)
Where two headings read alike, the source gives them in different places.

System: DOCA hypertensive rats
Assay: Antihypertensive activity in DOCA hypertensive rats (oral), systolic arterial blood pressure
Assay type: in vivo
Details: Rattus norvegicus, 1.5 h, read-out: ED50
Procedure: Rats are made hypertensive by subcutaneous implantation of pellets of desoxycorticosterone acetate (DOCA) and by giving saline solution to drink essentially according to the method described by Sturtevant [Annals of Internal Medicine, 49, 1281 (1958)]. Graded dose levels of each compound are administered orally to groups of 8 hypertensive rats. The compound is prepared in an aqueous polyvinyl alcohol/acacia vehicle and administered at a volume to body weight ratio of 5.0 ml/kg. Sixteen hypertensive rats receiving the aqueous vehicle by the same route serve as controls for each test. At various intervals of time after treatment, usually 90 minutes, the systolic arterial blood pressure of each rat is determined by a modification of the microphone-manometer technique [Friedman, M. and Freed, S. C., Proc. Soc. Exp. Biol, and Med., 70, 670 (1949)]. […]

[1] = oral, groups of 8 DOCA hypertensive rats, usually 90 minutes after treatment, dose producing 30 mm Hg reduction in blood pressure vs controls (Effective Dose 30, ED30)

## Cc1c(Br)c(=O)n2c3c(cc(C(O)(C(F)(F)F)C(F)(F)F)cc13)CCC2 [Example 10]
[1]
  ED (30 mm Hg): 9 mg/kg

## Cc1cc(=O)n2c3c(cc(C(O)(C(F)(F)F)C(F)(F)F)cc13)C(C)C2 (centres unmarked)
[1]
  ED (30 mm Hg): 0.6 mg/kg

## CCCCCCCCCCCC(=O)OC(c1cc2c3c(c1)c(C)cc(=O)n3CC2)(C(F)(F)F)C(F)(F)F [Example 45, 1,2-dihydro-8-[2,2,2-trifluoro-1-hydroxy-1-(trifluoromethyl)ethyl]-6-methyl-4H-pyrrolo[3,2,1-ij]quinolin-4-one laurate]
[1]
  ED (30 mm Hg): 0.12 mg/kg

## Cc1cc(=O)n2c3c(cc(C(O)(C(F)(F)F)C(F)(F)F)cc13)CCC2C (centres unmarked) [Example 2, 2,3-dihydro-3,7-dimethyl-9-[2,2,2-trifluoro-1-hydroxy-1-(trifluoromethyl)ethyl]-1H,5H-benzo-[ij]quinolizin-5-one]
[1]
  ED (30 mm Hg): 0.66 mg/kg

## O=c1ccc2cc(C(O)(C(F)(F)F)C(F)(F)F)cc3c2n1CCC3 [Example 42, 2,3-dihydro-9-[2,2,2-trifluoro-1-hydroxy-1-(trifluoromethyl)ethyl]-1H,5H-benzo[ij]quinolizin-5-one]
[1]
  ED (30 mm Hg): 3 to 9 mg/kg

## CCC(=O)OC(c1cc2c3c(c1)c(C)cc(=O)n3CC2)(C(F)(F)F)C(F)(F)F [Example 43, 1,2-dihydro-8-[2,2,2-trifluoro-1-hydroxy-1-(tri-fluoromethyl)ethyl]-6-methyl-4H-pyrrolo[3,2,1-ij]quinolin-4-one propanoate]
[1]
  ED (30 mm Hg): 0.22 mg/kg

## Cc1cc(=O)n2c3c(cc(C(OC(=O)c4ccccc4)(C(F)(F)F)C(F)(F)F)cc13)CC2 [Example 46]
[1]
  ED (30 mm Hg): 0.25 mg/kg

## Cc1cc(=O)n2c3c(cc(C(O)(C(F)(F)F)C(F)(F)Cl)cc13)CC2 (centres unmarked) [Example 53, 1,2-dihydro-8 [2-chloro-2,2-difluoro-1-hydroxy-1-(trifluoromethyl)ethyl]-6-methyl-4H-pyrrolo[3,-2,1-ij]quinolin-4-one]
[1]
  ED (30 mm Hg): 0.07 mg/kg

## COC(c1cc2c3c(c1)c(C)cc(=O)n3CC2)(C(F)(F)F)C(F)(F)F [Example 50, 1,2-dihydro-8-[2,2,2-trifluoro-1-methoxy-1-(trifluoromethyl)-ethyl]-6-methyl-4H-pyrrolo[3,2,1-ij]quinolin-4-one]
[1]
  ED (30 mm Hg): 0.35 mg/kg

## CCn1c(=O)cc(C)c2cc(C(O)(C(F)(F)F)C(F)(F)F)ccc21 [Example 31, 1-ethyl-6-[2,2,2-trifluoro-1-hydroxy-1-(trifluoromethyl)ethyl]-4-methyl-2(1H)-quinolinone]
[1]
  ED (30 mm Hg): 1.2 mg/kg

## Cc1cc(=O)n2c3c(cc(C(O)(C(F)(F)F)C(F)(F)F)cc13)CC2C (centres unmarked) [Example 14, 1,2-dihydro-2,6-dimethyl-8-[2,2,2-trifluoro-1-hydroxy-1-(trifluoromethyl)-ethyl]-4H-pyrrolo[3,2,1-ij]quinolin-4-one]
[1]
  ED (30 mm Hg): 0.047 mg/kg

## Cc1c(N)c(=O)n2c3c(cc(C(O)(C(F)(F)F)C(F)(F)F)cc13)CC2 [Example 13, 1,2-dihydro-8-[2,2,2-trifluoro-1-hydroxy-1-(trifluoromethyl)-ethyl]-5-amino-6-methyl-4H-pyrrolo[3,2,1-ij]quinolin-4-one]
[1]
  ED (30 mm Hg): 5.4 mg/kg

## CCc1cc(C(O)(C(F)(F)F)C(F)(F)F)cc2c(C)cc(=O)[nH]c12 [Example 26]
[1]
  ED (30 mm Hg): 1.3 mg/kg

## CCc1cc(=O)n2c3c(cc(C(O)(C(F)(F)F)C(F)(F)F)cc13)CCC2 [Example 8, 2,3-dihydro-7-ethyl-9-[2,2,2-trifluoro-1-hydroxy-1-(trifluoromethyl)-ethyl]-1H,5H-benzo[ij]quinolizin-5-one]
[1]
  ED (30 mm Hg): 0.27 mg/kg

## CCCCn1c(=O)cc(C)c2cc(C(O)(C(F)(F)F)C(F)(F)F)ccc21 [Example 34]
[1]
  ED (30 mm Hg): 5.2 mg/kg

## CCc1cc(=O)n2c3c(cc(C(O)(C(F)(F)F)C(F)(F)F)cc13)CC2 [Example 22, 1,2-dihydro-6-ethyl-8-[2,2,2-trifluoro-1-hydroxy-1-(trifluoromethyl)ethyl]-4H-pyrrolo[3,2,1-ij]quinolin-4-one]
[1]
  ED (30 mm Hg): 0.11 mg/kg

## Cc1c([N+](=O)[O-])c(=O)n2c3c(cc(C(O)(C(F)(F)F)C(F)(F)F)cc13)CC2 [Example 12, 1,2-dihydro-8-[2,2,2-trifluoro-1-hydroxy-1-(trifluoromethyl)-ethyl]-6-methyl-5-nitro-4H-pyrrolo[3,2,1-ij]quinolin-4-one]
[1]
  ED (30 mm Hg): 1.5 mg/kg

## Cc1cc(=O)n2c3c(cc(C(O)(C(F)F)C(F)F)cc13)CC2 [Example 54]
[1]
  ED (30 mm Hg): 1.2 mg/kg

## Cc1cc(=O)[nH]c2ccc(C(O)(C(F)(F)F)C(F)(F)F)cc12 [Example 24, 6-(2,2,2-trifluoro-1-hydroxy-1-(trifluoromethyl)ethyl)-4-methyl-2(1H)-quinolinone]
[1]
  ED (30 mm Hg): 4.1 mg/kg

## Cc1cc(=O)n2c3c(cc(C(O)(C(F)(F)F)C(F)(F)F)cc13)CCC2 [Example 1, 2,3-dihydro-9-[2,2,2-trifluoro-1-hydroxy-1-(trifluoromethyl)ethyl]-7-methyl-1H,5H-benzo[ij]quinolizin-5-one]
[1]
  ED (30 mm Hg): 1 mg/kg

## Cc1cc(=O)n(C)c2ccc(C(O)(C(F)(F)F)C(F)(F)F)cc12 [Example 32]
[1]
  ED (30 mm Hg): 0.4 mg/kg

## CCOC(c1cc2c3c(c1)c(C)cc(=O)n3CC2)(C(F)(F)F)C(F)(F)F [Example 51]
[1]
  ED (30 mm Hg): 0.5 mg/kg

## Cc1cc(=O)n2c3c(cc(C(O)(C(F)(F)F)C(F)(F)F)cc13)CC2 [Example 11, 1,2-dihydro-8-[2,2,2-trifluoro-1-hydroxy-1-(trifluoromethyl)ethyl]-6-methyl-4H-pyrrolo[3,2,1-ij]quinolin-4-one]
[1]
  ED (30 mm Hg): 0.13 mg/kg

## CC(=O)OC(c1cc2c3c(c1)c(C)cc(=O)n3CC2)(C(F)(F)F)C(F)(F)F [Example 44, 1,2-dihydro-8-[2,2,2-trifluoro1-hydroxy-1-(trifluoromethyl)ethyl]-6-methyl-4H-pyrrolo[3,2,1-ij]quinolin-4-one acetate]
[1]
  ED (30 mm Hg): 0.2 mg/kg

## Cc1cc(=O)n2c3c(cc(C(O)(C(F)(F)F)C(F)(F)F)cc13)C(C)CC2 (centres unmarked)
[1]
  ED (30 mm Hg): 3.6 mg/kg

## Cc1cc(=O)n2c3c(cc(C(O)(C(F)(F)F)C(F)(F)F)cc13)CCCC2 [Example 23, 5,6,7,8-tetrahydro-10-[2,2,2-trifluoro-1-hydroxy-1-(trifluoromethyl)ethyl]-1-methyl-3H-azepino[3,2,1-ij]quinolin-3-one]
[1]
  ED (30 mm Hg): 1.3 mg/kg

## Cc1cc(=O)[nH]c2c(C)cc(C(O)(C(F)(F)F)C(F)(F)F)cc12 [Example 25]
[1]
  ED (30 mm Hg): 3.7 mg/kg

## Cc1c(Cl)c(=O)n2c3c(cc(C(O)(C(F)(F)F)C(F)(F)F)cc13)CCC2 [Example 9, 6-chloro-2,3-dihydro-9-[2,2,2-trifluoro-1-hydroxy-1-(trifluoromethyl)ethyl]-7-methyl-1H,5H-benzo[ij]quinolizin-5-one]
po
  ED (30 mm Hg): 1.6 mg/kg

## Cc1cc(=O)n2c3c(cc(C(O)(C(F)F)C(F)(F)F)cc13)CC2 (centres unmarked) [Example 52, 1,2-dihydro-8-[2,2,-difluoro-1-hydroxy-1-(trifluoromethyl)ethyl]-6-methyl-4H-pyrrolo[3,2,1-ij]quinolin-4-one]
[1]
  ED (30 mm Hg): 0.075 mg/kg
